Assay results taken from the NIST ThermoML archive (doi:10.1016/j.jct.2007.05.015).
± gives the expanded uncertainty stated by the source.

Experiment: xn = mol fraction of the nth substance listed
Conditions: 298.15 K, 101 kPa, Liquid

O=C1CCCN1 [2-pyrrolidinone] + O
Conditions	mass density [kg/m3]	speed of sound [m/s]
x1 = 0.03793	1015.26 ± 0.6	1577.4 ± 6.1
x1 = 0.05001	1020.61 ± 0.63	1597.6 ± 6.2
x1 = 0.07966	1032.48 ± 0.71	1632.1 ± 6.3
x1 = 0.1093	1042.93 ± 0.77	1670 ± 6.4
x1 = 0.122	1046.78 ± 0.8	1684.5 ± 6.5
x1 = 0.1582	1056.77 ± 0.87	1708 ± 6.5
x1 = 0.1789	1062.24 ± 0.9	1716.5 ± 6.6
x1 = 0.2155	1070.34 ± 0.96	1726.6 ± 6.6
x1 = 0.2352	1074.91 ± 0.99	1732.1 ± 6.6
x1 = 0.2473	1077.08 ± 1	1735.2 ± 6.6
x1 = 0.2794	1081.92 ± 1	1737.3 ± 6.6
x1 = 0.3497	1088.62 ± 1.1	1735.5 ± 6.6
x1 = 0.4199	1093.46 ± 1.1	1727.8 ± 6.6
x1 = 0.5013	1097.41 ± 1.2	1715.8 ± 6.6
x1 = 0.549	1099.18 ± 1.2	1708.8 ± 6.6
x1 = 0.6133	1101.6 ± 1.2	1698.7 ± 6.5
x1 = 0.6705	1102.82 ± 1.3	1683.4 ± 6.5
x1 = 0.7037	1103.16 ± 1.3	1678.5 ± 6.5
x1 = 0.8117	1105.88 ± 1.3	1658 ± 6.4
x1 = 0.8353	1106.12 ± 1.3	1654.6 ± 6.4
x1 = 0.8593	1106.38 ± 1.4	1651.3 ± 6.4
x1 = 0.8813	1106.59 ± 1.4	1647.9 ± 6.4
x1 = 0.9413	1107.13 ± 1.4	1640.7 ± 6.4
x1 = 1	1107.52 ± 1.4	1633.7 ± 6.4

CC(=O)N(C)C [N,N-dimethylethanamide] + O
Conditions	mass density [kg/m3]	speed of sound [m/s]
x1 = 0.00083	996.94 ± 1	1499.8 ± 5.9
x1 = 0.00163	996.87 ± 1	1502.4 ± 5.9
x1 = 0.03959	995.84 ± 1.1	1616.2 ± 6.2
x1 = 0.055	996.37 ± 1	1645.5 ± 6.3
x1 = 0.06456	996.62 ± 1	1663.2 ± 6.4
x1 = 0.08126	997.29 ± 1	1678.6 ± 6.4
x1 = 0.1	997.94 ± 1	1700.3 ± 6.5
x1 = 0.1208	998.5 ± 1	1717.9 ± 6.6
x1 = 0.1447	998.68 ± 1	1730.7 ± 6.6
x1 = 0.1714	998.55 ± 1	1737.9 ± 6.6
x1 = 0.2012	997.61 ± 1	1749.4 ± 6.7
x1 = 0.2381	995.72 ± 1.1	1734.5 ± 6.6
x1 = 0.2761	992.03 ± 1.1	1719.7 ± 6.6
x1 = 0.3245	988.32 ± 1.1	1703.6 ± 6.5
x1 = 0.3783	985.12 ± 1.2	1682.1 ± 6.5
x1 = 0.4137	982.41 ± 1.2	1669 ± 6.4
x1 = 0.452	979.26 ± 1.3	1653.4 ± 6.4
x1 = 0.4832	975.57 ± 1.3	1638.2 ± 6.3
x1 = 0.5372	969.73 ± 1.4	1605.4 ± 6.2
x1 = 0.583	965.29 ± 1.4	1586.8 ± 6.2
x1 = 0.6496	959.34 ± 1.5	1559.2 ± 6.1
x1 = 0.7074	953.42 ± 1.6	1534.2 ± 6
x1 = 0.7633	949.72 ± 1.6	1522 ± 6
x1 = 0.8342	946.12 ± 1.7	1489 ± 5.9
x1 = 0.9053	940.96 ± 1.8	1482.2 ± 5.8
x1 = 1	936.34 ± 1.8	1455.9 ± 5.8

CNC=O [N-methylformamide] + O
Conditions	mass density [kg/m3]	speed of sound [m/s]
x1 = 0.01572	999.1 ± 0.5	1518.7 ± 3.4
x1 = 0.03276	1001.38 ± 0.51	1538.8 ± 3.4
x1 = 0.05095	1003.6 ± 0.52	1557.2 ± 3.4
x1 = 0.07104	1005.91 ± 0.54	1574.1 ± 3.4
x1 = 0.09226	1007.87 ± 0.55	1582.7 ± 3.5
x1 = 0.1156	1010.1 ± 0.57	1591.3 ± 3.5
x1 = 0.141	1011.91 ± 0.58	1601.6 ± 3.5
x1 = 0.1714	1013.58 ± 0.59	1606.1 ± 3.5
x1 = 0.2005	1014.89 ± 0.61	1606.2 ± 3.5
x1 = 0.2339	1015.73 ± 0.61	1603.4 ± 3.5
x1 = 0.2714	1016.31 ± 0.62	1598.8 ± 3.5
x1 = 0.3047	1016.34 ± 0.63	1594 ± 3.5
x1 = 0.3185	1016.28 ± 0.63	1589.3 ± 3.5
x1 = 0.3367	1016.3 ± 0.63	1583.7 ± 3.5
x1 = 0.3615	1015.86 ± 0.63	1573 ± 3.5
x1 = 0.3853	1015.45 ± 0.63	1560.7 ± 3.5
x1 = 0.4166	1014.47 ± 0.63	1551.9 ± 3.5
x1 = 0.4456	1013.64 ± 0.63	1542.9 ± 3.4
x1 = 0.4785	1012.83 ± 0.63	1534.2 ± 3.4
x1 = 0.5109	1011.92 ± 0.63	1526.4 ± 3.4
x1 = 0.5497	1010.88 ± 0.64	1514.7 ± 3.4
x1 = 0.5805	1010.04 ± 0.64	1507.5 ± 3.4
x1 = 0.5913	1009.49 ± 0.64	1502.6 ± 3.4
x1 = 0.6164	1008.9 ± 0.64	1497.2 ± 3.4
x1 = 0.6335	1008.22 ± 0.64	1493.1 ± 3.4
x1 = 0.681	1006.72 ± 0.64	1480.6 ± 3.4
x1 = 0.7323	1005.35 ± 0.64	1469 ± 3.4
x1 = 0.779	1004.51 ± 0.65	1462.9 ± 3.4
x1 = 0.8279	1003.34 ± 0.66	1454.5 ± 3.4
x1 = 0.8535	1002.54 ± 0.66	1449.5 ± 3.4
x1 = 0.8763	1001.72 ± 0.66	1446.5 ± 3.4
x1 = 0.917	1001.03 ± 0.67	1441.1 ± 3.4
x1 = 0.9285	1000.72 ± 0.67	1440.2 ± 3.4
x1 = 1	999.06 ± 0.7	1431.9 ± 3.4
